We go through 24 compounds from patent US7132546B2, “Aniline derivatives or salts thereof and cytokine production inhibitors containing the same” (Ishihara Sangyo Kaisha, Ltd., priority 2000, dated 2006).

Series [1] has as its system interleukin 5 (IL-5) production. The series can be described thus: Cytokine production inhibitory effect: IL-5 production by murine spleen cells treated with anti-mouse CD3 antibody and IL-2 (ELISA). The class given is cell-based, Balb/c mice. Conditions: test compound 100 ppm, anti-CD3 antibody + IL-2, 40 to 48 hours, read-out: IL-5 production inhibitory ratio (%). A general note: In an ELISA, binding on a coated surface is turned into a signal by an enzyme label.

In series [2] the test system is interferon γ (IFN-γ) production. Description: Cytokine production inhibitory effect: IFN-γ production by murine spleen cells treated with anti-mouse CD3 antibody and IL-2 (ELISA). The class given is cell-based, Balb/c mice. The note with it: test compound 100 ppm, anti-CD3 antibody + IL-2, 40 to 48 hours, read-out: IFN-γ production inhibitory ratio (%).

Take `Cc1cc(NC(=O)c2cc([N+](=O)[O-])ccc2F)ccc1Oc1ncc(C(F)(F)F)cc1Cl` [compound 119]: the melting point was 179 to 181 °C. Further, the inhibition at 100 ppm in series [1] was 100%. Moreover, in series [2], the inhibition at 100 ppm came out at 99%.
Consider `Cc1cc(NC(=O)c2cc([N+](=O)[O-])ccc2Br)ccc1Oc1ncc(C(F)(F)F)cc1Cl` [compound 120], for which the melting point is 246 to 248 °C. For the same compound, the inhibition at 100 ppm in series [1] worked out at 84%. The inhibition at 100 ppm in series [2] was 35%.
On the same counts, the results for `Nc1cc(NC(=O)c2cc([N+](=O)[O-])ccc2Cl)ccc1Oc1ncc(C(F)(F)F)cc1Cl` [compound 121] are 235 to 237 °C, 97% and 100%.
With `N#Cc1cc(NC(=O)c2cc([N+](=O)[O-])ccc2Cl)ccc1Oc1ncc(C(F)(F)F)cc1Cl` [compound 122], the melting point fell in the range of 194 to 198 °C. The inhibition at 100 ppm in series [1] came to 100%. Further, in series [2], the inhibition at 100 ppm stood at 100%.
Take `CC(=O)Nc1cc(NC(=O)c2cc([N+](=O)[O-])ccc2Cl)ccc1Oc1ncc(C(F)(F)F)cc1Cl` [compound 125]: the melting point was 203 to 205 °C. In series [1], the inhibition at 100 ppm worked out at 100%. Further, in series [2], the inhibition at 100 ppm stood at 100%.
With `O=C(Nc1ccc(Oc2ncc(C(F)(F)F)cc2Cl)c(O)c1)c1cc([N+](=O)[O-])ccc1Cl` [compound 126], the melting point lay within 194 to 197 °C. The inhibition at 100 ppm in series [1] turned out to be 100%. Moreover, the inhibition at 100 ppm in series [2] was found to be 100%.
The compound `CN(C)c1cc(NC(=O)c2cc([N+](=O)[O-])ccc2Cl)ccc1Oc1ncc(C(F)(F)F)cc1Cl` [compound 128] showed a melting point of 208 to 213 °C. In addition, the inhibition at 100 ppm in series [1] is 96%. Also, in series [2], the inhibition at 100 ppm is 93%.
On the same counts, the results for `CN(c1cc(NC(=O)c2cc([N+](=O)[O-])ccc2Cl)ccc1O)c1ncc(C(F)(F)F)cc1Cl` [compound 129] are 273 to 276 °C, 86% and 67%.
In turn, `O=C(Nc1ccc(Oc2ncc(C(F)(F)F)cc2Cl)c(N2CCCC2)c1)c1cc([N+](=O)[O-])ccc1Cl` [compound 130] came in with a melting point of 235 to 237 °C. Besides, the inhibition at 100 ppm in series [1] stood at 100%. Moreover, in series [2], the inhibition at 100 ppm turned out to be 99%.
As for `O=C(Nc1ccc(Oc2ncc(C(F)(F)F)cc2Cl)c(N2CCCCC2)c1)c1cc([N+](=O)[O-])ccc1Cl` [compound 131], the melting point lay within 194 to 198 °C. For the same compound, the inhibition at 100 ppm in series [1] was determined as 100%. In addition, in series [2], the inhibition at 100 ppm came to 100%.
`O=C(Nc1ccc(Nc2ncc(C(F)(F)F)cc2Cl)cc1)c1cc([N+](=O)[O-])ccc1Cl` [compound 132]: the melting point was in the range of 215 to 218 °C. Also, the inhibition at 100 ppm in series [1] turned out to be 99%. For the same compound, the inhibition at 100 ppm in series [2] was 100%.
In turn, `CN(c1ccc(NC(=O)c2cc([N+](=O)[O-])ccc2Cl)cc1)c1ncc(C(F)(F)F)cc1Cl` [compound 133] registered a melting point of 212 to 216 °C. The inhibition at 100 ppm in series [1] was 99%. The inhibition at 100 ppm in series [2] was 100%.
On the same counts, the results for `O=C(Nc1ccc(S(=O)(=O)Nc2ccccn2)cc1)c1cc([N+](=O)[O-])ccc1Cl` [compound 136] are 178 to 181 °C, 98% and 100%.
Compound `O=C(Nc1ccc(S(=O)(=O)Nc2ncccn2)cc1)c1cc([N+](=O)[O-])ccc1Cl` [compound 137] returned a melting point of 252 to 258 °C. In addition, the inhibition at 100 ppm in series [1] stood at 98%. In series [2], the inhibition at 100 ppm worked out at 98%.
`O=C(Nc1ccc(S(=O)(=O)NC2=NC3C=CC=CC3N=C2)cc1)c1cc([N+](=O)[O-])ccc1Cl` (stereo not drawn) [compound 138] showed a melting point of 146 to 150 °C. For the same compound, the inhibition at 100 ppm in series [1] is 99%. Moreover, in series [2], the inhibition at 100 ppm came out at 100%.
On the same counts, the results for `O=C(Nc1ccc2c(c1)CCC2)c1cc([N+](=O)[O-])ccc1Cl` [compound 139] are 225 to 229 °C, 89% and 50%.
On the same counts, the results for `O=C(Nc1ccc2ncsc2c1)c1cc([N+](=O)[O-])ccc1Cl` [compound 140] are 242 to 244 °C, 100% and 100%.
On the same counts, the results for `O=C(Nc1nc(-c2ccc(Cl)cc2)cs1)c1cc([N+](=O)[O-])ccc1Cl` [compound 141] are 217 to 221 °C, 100% and 100%.
Regarding `O=C(Nc1ccc(S(=O)(=O)Nc2nccs2)cc1)c1cc([N+](=O)[O-])ccc1Cl` [compound 142], the melting point is 140 to 147 °C. In series [1], the inhibition at 100 ppm came to 95%. The inhibition at 100 ppm in series [2] came to 99%.
As for `O=C(Nc1nc2ccccc2s1)c1cc([N+](=O)[O-])ccc1Cl` [compound 143], the melting point is 221 to 227 °C. Also, in series [1], the inhibition at 100 ppm stood at 97%. For the same compound, the inhibition at 100 ppm in series [2] is 100%.
In the same order, the values of `O=C(Nc1ccc(=O)n(-c2ncc(C(F)(F)F)cc2Cl)c1)c1cc([N+](=O)[O-])ccc1Cl` [compound 144] are 116 °C, 99% and 100%.
On the same counts, the results for `Cc1ccc(S(=O)(=O)Nc2ccc(NC(=O)c3cc([N+](=O)[O-])ccc3Cl)cc2)cc1` [compound 145] are 165 to 172 °C, 100% and 100%.
In the same order, the values of `O=C(NS(=O)(=O)c1ccc(NC(=O)c2cc([N+](=O)[O-])ccc2Cl)cc1)c1ccccc1` [compound 146] are 235 to 237 °C, 62% and 43%.
Compound `Cc1cc(NC(=O)c2cc([N+](=O)[O-])ccc2Cl)ccc1Nc1ncc(C(F)(F)F)cc1Cl` [compound 148] registered a melting point of 189 to 192 °C. Further, in series [1], the inhibition at 100 ppm was 94%. In addition, the inhibition at 100 ppm in series [2] worked out at 81%.

The term melting point denotes the temperature, or range, at which the solid turns liquid.
